Columns and labels:
[1] = test system: Ixodes Ricinus (male, female and nymphs); test: Tick repellent testing (treated cylinder/stick and human volunteer's forearm); format: in vivo; details: stick test, FIG. 4
[2] = test system: Aedes albopictus; test: Mosquito repellent testing on human forearm in test cage (ASTM E951-83); format: in vivo; details: text summary of Table 4
Protocol: The mosquitos used in this study were Aedes albopictus. Mosquito repellent activity of the tested samples (listed in Table 2) was assessed by using the test cage as described by Songkro et al (2012), in the American Society for Testing and Materials (ASTM) standard […]-83 Laboratory testing of non-commercial mosquito repellent composition on the skin. The sample was tested on human subject. The same volunteers tested all the formulations under laboratory conditions. According to the method described by Coucci and Müller (2018), 50 adult female Aedes albopictus mosquitoes were transferred into the mosquito proof enclosed cage with the help of aspirator tube. The compositions to be tested were applied to the forearm ([…]) of the volunteers. The applied hand was introduced into the cage and the number of bites was recorded. After every 30 minutes the volunteer hands were subjected to the cage for 5 minutes and the numbers of mosquito bites were noted. Same procedure was implemented for control. Control study is done by placing the forearm in cage without application of tested sample. Before starting each replication, the mosquitoes' propensity to bite is assessed by inserting an untreated forearm into the cage. […] According to this procedure different compositions were tested by applying on the forearm with fresh mosquitoes every time of testing.

[3] = test system: Ixodes larvae, nymph forms and adults (female and male); test: Field testing, treated tick sheet dragging; format: in vivo; details: treated cotton sheet dragged 35 x 10 m; 5% vanillin in all FA and HFA solutions; vs commercial product Punkkiassa (19% IR3535)
Excerpt: Tick-dragging method was adopted to study the effectiveness of the product in repelling ticks in their natural habitat in Ruissalo, Turku. A square of 1 m^2 cotton sheet was divided in three parallel divisions and the borders were marked with pencil: 100*45 cm division on both sides (A and B) and a 100*10 cm neutral strip in the middle (N). Both A and B were both treated with a solution from a solution test pair (or left untreated for control drags) from that side of the sheet that would face the ground during dragging. The neutral zone was always left untreated. The evenly sprayed solution was let settle on the sheet for ˜15 minutes before the first drag. The sheet was dragged for 10 m with the treated side down with moderate pace in an even, tick-friendly biotope. After every 10 meter drag, the treated side was inspected for Ixodes larvae, nymph forms and adults (female and male). Number of individuals in every (4) form per department (A, B or N) was counted. Every test pair/sheet was dragged 35 times during the same day between 08:00 AM and 02:00 PM. No new solution was added to the sheet during the day. The time of start for every draw was checked. We tested different product types for field studies like FA (5, 10, 20%) and HFA (10 & 20%) and also included a commercial tick repellent (Punkkiassa) as a positive control. […]

[4] = test system: nymphs and the female ticks of the Ixodus ricinu species; test: Tick repellency of IR3535 (test results received from Entostudio laboratory, Italy); details: in vivo

Structure (SMILES) | tick repellent activity (in words) [1] | mosquito repellent activity (in words) [2] | repellency of nymphs in field test (FIG. 5) [3] | repellency of nymphs and female ticks [4]
C=C1CC[C@H]2O[C@]2(C)CC[C@@H]2[C@@H]1CC2(C)C [Caryophyllene oxide] | not very effective |  |  | 
CC(=O)CC/C=C(\C)CC/C=C(\C)CCC=C(C)C [FA, Farnesyl acetone] |  | efficient repellent activity | repelled nymphs very effectively compared to the commercial product | 
CC(=O)CCCC(C)CCCC(C)CCCC(C)C (stereo not drawn) [HFA, 6,10,14-trimethyl-pentadecanone] |  | efficient repellent activity | repelled nymphs very effectively compared to the commercial product | 
CCCCN(CCC(=O)OCC)C(C)=O [IR3535, 3-[N-butyl-N-acetyl]-aminopropionic acid, ethyl ester] |  |  |  | does not repel the nymphs and the female ticks

— patent US20240284918A1, “INSECT REPELLENT COMPOSITION AND A METHOD OF REPELLING INSECTS” (Åbo Akademi, priority 2021, published 2024)
